This passage reports GI50 and TGI results from PubChem BioAssay (NCI).

What all share (test): NCI tumour cell line growth inhibition, 48 h
Experiment [1] concerns OVCAR-5 ovarian.
Experiment [2] relates to SK-MEL-28 melanoma.
Experiment [3] concerns MALME-3M melanoma.
The test system of experiment [4] is SF-539 CNS.
The test system of experiment [5] is IGROV1 ovarian.
Experiment [6] deals with OVCAR-3 ovarian.
Experiment [7] deals with MCF7 breast.
The test system of experiment [8] is U251 CNS.
The subject of experiment [9] is MOLT-4 leukemia.
The test system of experiment [10] is TK-10 renal.

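Dose response: 5 concentrations. Exposure: 48 h. Format: 96-well plates. Endpoint: linear interpolation; highest concentration if not reached. GI50 = concentration required for 50% inhibition of growth. TGI denotes the concentration required for complete inhibition of growth.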

For the molecule `CN(C)c1ccc(-c2cc(-c3ccc(Nc4nc(Nc5ccccc5)nc(Nc5ccc(Cl)cc5)n4)cc3)nc(N)n2)cc1`, the GI50 was 16.1 µM in experiment [1]; 10.8 µM in experiment [2]; 4070 nM in experiment [3]; 5610 nM in [4]; 2070 nM in [5]; 5.77 µM in experiment [6]. Moreover, the GI50 in experiment [7] was 2840 nM; in experiment [8], 5060 nM; in experiment [9], 1800 nM; in [10], 5.68 µM. The TGI in [1] is 91.5 µM; in experiment [2], 29.9 µM; in experiment [3] it was 49.2 µM; in experiment [4] it was 23.5 µM; in experiment [5], 62 µM; in experiment [6] it was 28.9 µM. Besides, the TGI is 15 µM in experiment [7], 25 µM in [8], 7.87 µM in experiment [9] and 38.7 µM in [10].
`CC(C)[C@@]12C[C@@H](OC(=O)COC(=O)/C=C/c3ccccc3)[C@@](C)(O1)[C@@H]1CC[C@@H](C)[C@H]1[C@@H]2OC(=O)/C=C/c1ccccc1`: the GI50 in experiment [1] was above 100 µM; in experiment [2], above 100 µM; in experiment [3], above 100000 nM; in experiment [4] it was above 100000 nM; in experiment [5], above 100000 nM; in experiment [6], above 100 µM. Moreover, the GI50 in experiment [7] is above 100000 nM; in [8] it was above 100000 nM; in experiment [9], above 100000 nM; in experiment [10], above 100 µM. In addition, the TGI in experiment [1], in experiment [2], in experiment [3], in experiment [4], in experiment [5] and in [6] was above 100 µM in each case. In addition, the TGI in experiment [7], in experiment [8], in experiment [9] and in [10] was above 100 µM throughout.
For `O=C(CCCCCCSc1nc(-c2ccccc2)cc(-c2ccccc2)n1)NO`, the GI50 in [1] is 1.84 µM; in experiment [2] it was 2.85 µM; in experiment [3], 1020 nM; in experiment [4] it was 2430 nM; in experiment [5] it was 2250 nM; in experiment [6] it was 2.15 µM. Besides, the GI50 is 1310 nM in [7], 1510 nM in experiment [8], 420 nM in experiment [9] and 2.51 µM in [10]. In addition, the TGI in experiment [1] was 7.92 µM; in experiment [2], 12.4 µM; in [3], 8.31 µM; in [4], 10 µM; in [5], 10.3 µM; in [6], 9.26 µM. Further, the TGI in experiment [7] stood at 15.9 µM; in experiment [8], 4.08 µM; in [9], 3.3 µM; in [10] it was 13.5 µM.
`CN1CCN(c2nc(NCCCCNc3ccnc4cc(Cl)ccc34)c3ccccc3n2)CC1`: the GI50 in [1] was 2.98 µM; in [2], 1.85 µM; in experiment [3], 1930 nM; in [4], 1620 nM; in experiment [5] it was 3490 nM; in experiment [6] it was 5.36 µM. Also, the GI50 in experiment [7] is 4300 nM; in experiment [8], 3270 nM; in experiment [9], 3080 nM; in experiment [10], 1.85 µM. Also, the TGI in experiment [1] came out at 15.8 µM; in experiment [2], 3.57 µM; in [3], 3.61 µM; in experiment [4] it was 3.25 µM; in experiment [5], 19 µM; in [6], 22.6 µM. In addition, the TGI in experiment [7] came to 19.1 µM; in experiment [8], 10.1 µM; in experiment [9], 20 µM; in [10] it was 4.69 µM.
With `COc1cc(Cn2c(=S)ss/c2=N\C(=S)N(C)C)cc(OC)c1OC`, the TGI in experiment [1] was above 100 µM; in experiment [2] it was above 100 µM; in experiment [3], above 100 µM; in [4], above 57.7 µM; in experiment [5] it was above 96 µM; in experiment [6], 13.6 µM. For the same molecule, the TGI in experiment [7] is above 100 µM; in experiment [8], above 82 µM; in experiment [9] it was above 100 µM; in experiment [10], above 100 µM.
With `COc1ccc(C(=O)/C=C/c2c(C(F)(F)F)nc3sccn23)cc1OC`, the GI50 in experiment [1] is 4.18 µM; in experiment [2] it was 8.48 µM; in experiment [3] it was 5920 nM; in experiment [4], 2360 nM; in experiment [5] it was 3150 nM; in experiment [6], 2.12 µM. The GI50 in [7] is 766 nM; in [8], 1870 nM; in experiment [9], 2220 nM; in experiment [10], 8.76 µM. In addition, the TGI in experiment [1] was 39.1 µM; in experiment [2] it was above 100 µM; in [3], above 100 µM; in experiment [4], 8.52 µM; in experiment [5], above 100 µM; in experiment [6], 6.14 µM. Moreover, the TGI in experiment [7] was 34.9 µM; in experiment [8], above 100 µM; in [9], above 100 µM; in experiment [10], above 100 µM.
Take `C=CC1=C[C@@H]2[C@@H]3O[C@]4(CC[C@H](O4)[C@@H](C)C[C@@H](O)C3=O)C[C@H](O)C3=NCC[C@@]32CC1`: the GI50 in experiment [1] is below 0.00333 µM; in experiment [2], below 0.00333 µM; in [3], below 3.33 nM; in experiment [4], below 3.33 nM; in [5] it was below 3.33 nM; in [6] it was below 0.00333 µM. The GI50 in experiment [7] is below 3.33 nM; in experiment [8] it was below 3.33 nM; in [9], below 3.33 nM; in experiment [10], below 0.00333 µM. Further, the TGI is 0.00513 µM in experiment [1]; below 0.00333 µM in [2]; below 0.00333 µM in experiment [3]; below 0.00333 µM in [4]; 0.00337 µM in [5]; below 0.00333 µM in experiment [6]. Also, the TGI is below 0.00333 µM in [7], 0.39 µM in experiment [8], 0.112 µM in experiment [9] and 0.00385 µM in experiment [10].
